# Active and inactive are the calls of the source. No cut-off for these calls is given here.
# Columns and labels:
# Escherichia coli [1] = test: Synergistic antibacterial activity against kanamycin resistant Escherichia coli assessed as fractional inhibitory concentration index incubated for 18 hrs in presence of cefotaxime by checkerboard assay; assay type: functional
# Pseudomonas aeruginosa [2] = test: Bactericidal activity against Pseudomonas aeruginosa ATCC 27853 incubated for 18 hrs by broth microdilution method; assay type: functional
# Pseudomonas aeruginosa [3] = test: Antibacterial activity against Pseudomonas aeruginosa assessed as fractional inhibitory concentration index incubated for 18 hrs in presence of cefotaxime by checkerboard assay; assay type: functional
# Staphylococcus aureus [4] = test: Antibacterial activity against Staphylococcus aureus at 2 times MIC preincubated for 1 hr with trypsin followed by enzyme inactivation and bacterial addition and measured after 18 hrs; assay type: functional; conditions: time 19 hrs
# Pseudomonas aeruginosa [5] = test: Induction of morphological change in Pseudomonas aeruginosa assessed as bacterial swelling at 2 times MIC incubated for 30 mins by SEM analysis; assay type: functional, organism-based
# Pseudomonas aeruginosa [6] = test: Induction of morphological change in Pseudomonas aeruginosa assessed as leakage of cellular contents at 2 times MIC incubated for 30 mins by SEM analysis; assay type: functional, organism-based
# Staphylococcus aureus [7] = test: Antibacterial activity against kanamycin resistant Staphylococcus aureus assessed as fractional inhibitory concentration index incubated for 18 hrs in presence of kanamycin by checkerboard assay; assay type: functional
# Escherichia coli [8] = test: Additive antibacterial activity against Escherichia coli assessed as fractional inhibitory concentration index incubated for 18 hrs in presence of kanamycin by checkerboard assay; assay type: functional
# Staphylococcus aureus [9] = test: Additive antibacterial activity against Staphylococcus aureus 794 assessed as fractional inhibitory concentration index incubated for 18 hrs in presence of streptomycin by checkerboard assay; assay type: functional
# Staphylococcus aureus [10] = test: Additive antibacterial activity against Staphylococcus aureus assessed as fractional inhibitory concentration index incubated for 18 hrs in presence of bacitracin by checkerboard assay; assay type: functional
# Staphylococcus aureus [11] = test: Synergistic antibacterial activity against kanamycin resistant Staphylococcus aureus assessed as fractional inhibitory concentration index incubated for 18 hrs in presence of rifampin by checkerboard assay; assay type: functional
# Staphylococcus aureus [12] = test: Synergistic antibacterial activity against methicillin resistant Staphylococcus aureus 75 assessed as fractional inhibitory concentration index incubated for 18 hrs in presence of cefotaxime by checkerboard assay; assay type: functional
# Klebsiella pneumoniae [13] = test: Synergistic antibacterial activity against Klebsiella pneumoniae assessed as fractional inhibitory concentration index incubated for 18 hrs in presence of rifampin by checkerboard assay; assay type: functional
# Staphylococcus aureus [14] = test: Antibacterial activity against Staphylococcus aureus incubated for 18 hrs in presence of FeCl3 by broth microdilution method; assay type: functional, organism-based
# Staphylococcus aureus [15] = test: Antibacterial activity against Staphylococcus aureus incubated for 18 hrs in presence of NaCl by broth microdilution method; assay type: functional, organism-based
# Cell membrane [16] = test: Induction of cell membrane disruption in Escherichia coli assessed as PI uptake at 4 times MIC incubated for 2 hrs by PI staining based flow cytometry analysis (reference value: 11.9%); assay type: cell membranes
# [17] = Toxicity in BALB/c mouse infected with Staphylococcus aureus 794 assessed as epidermal layer thickness at 1 mg/ml, ip pre-infected with bacteria for 24 hrs followed by compound addition and measured after 13 days by H and E staining based histopathological analysis; assay type: organism-based; conditions: in vivo, 312 h, time 13 day
# Staphylococcus aureus [18] = test: Antibacterial activity against Staphylococcus aureus incubated for 18 hrs by broth microdilution method; assay type: functional
# Staphylococcus aureus [19] = test: Additive antibacterial activity against Staphylococcus aureus 125 assessed as fractional inhibitory concentration index incubated for 18 hrs in presence of cefotaxime by checkerboard assay; assay type: functional
# Staphylococcus aureus [20] = test: Antibacterial activity against Staphylococcus aureus 794 infected in BALB/c mouse skin wound infection model assessed as reduction in TNFalpha level at 1 mg/ml, ip pre-infected with bacteria for 24 hrs followed by compound addition and measured after 13 days post infection; assay type: functional, organism-based; conditions: time 12.0 day
# [21] = Retention time of the compound; assay type: physicochemical
# Escherichia coli [22] = test: Bactericidal activity against Escherichia coli ATCC 25922 incubated for 18 hrs by broth microdilution method; assay type: functional
# Staphylococcus aureus [23] = test: Additive antibacterial activity against Staphylococcus aureus 125 assessed as fractional inhibitory concentration index incubated for 18 hrs in presence of streptomycin by checkerboard assay; assay type: functional
# Cell membrane [24] = test: Induction of outer membrane permeabilization in Escherichia coli within 1 min by NPN-dye based assay; assay type: cell membranes
# Cell membrane [25] = test: Induction of cell membrane disruption in Staphylococcus aureus assessed as PI uptake at 2 times MIC incubated for 2 hrs by PI staining based flow cytometry analysis (reference value: 15.9%); assay type: cell membranes
# Staphylococcus aureus [26] = test: Synergistic antibacterial activity against methicillin resistant Staphylococcus aureus 113 assessed as fractional inhibitory concentration index incubated for 18 hrs in presence of bacitracin by checkerboard assay; assay type: functional
# Escherichia coli [27] = test: Antibacterial activity against rifampicin resistant Escherichia coli incubated for 18 hrs by broth microdilution method; assay type: functional
# Staphylococcus aureus [28] = test: Additive antibacterial activity against Staphylococcus aureus 794 assessed as fractional inhibitory concentration index incubated for 18 hrs in presence of gentamycin by checkerboard assay; assay type: functional
# Staphylococcus aureus [29] = test: Antibacterial activity against Staphylococcus aureus 794 infected in BALB/c mouse skin wound infection model assessed as reduction in wound bacterial load at 1 mg/ml, ip administered at 1 hr interval for total 6 treatment and measured after 1 hr post last dose; assay type: functional, organism-based; conditions: time 7.0 hrs
# Staphylococcus aureus [30] = test: Synergistic antibacterial activity against methicillin resistant Staphylococcus aureus 75 assessed as fractional inhibitory concentration index incubated for 18 hrs in presence of kanamycin by checkerboard assay; assay type: functional
# Escherichia coli [31] = test: Antibacterial activity against Escherichia coli at 2 times MIC preincubated with 256 ug/ml LPS for 1 hr followed by bacterial addition and measured after 5 hrs; assay type: functional, organism-based; conditions: time 6.0 hrs
# Staphylococcus aureus [32] = test: Antibacterial activity against kanamycin resistant Staphylococcus aureus incubated for 18 hrs by broth microdilution method; assay type: functional
# Klebsiella pneumoniae [33] = test: Bactericidal activity against Klebsiella pneumoniae ATCC 700603 incubated for 18 hrs by broth microdilution method; assay type: functional
# Escherichia coli [34] = test: Antibacterial activity against Escherichia coli infected in BALB/c mouse systemic infection model assessed as reduction in lung bacterial load at 5 to 10 mg/kg, ip measured after 24 hrs; assay type: functional, organism-based; conditions: dose 5-10 mg/kg
# Staphylococcus aureus [35] = test: Antibacterial activity against Staphylococcus aureus incubated for 18 hrs in presence of NH4Cl by broth microdilution method; assay type: functional, organism-based
# [36] = Acute toxicity in mouse assessed as inflammatory cell infiltration in lung at 230.5 mg/kg, ip by H and E staining based assay; assay type: organism-based; conditions: in vivo
# Escherichia coli [37] = test: Antibacterial activity against Escherichia coli infected in BALB/c mouse systemic infection model assessed as reduction in kidney bacterial load at 5 to 10 mg/kg, ip measured after 24 hrs; assay type: functional, organism-based; conditions: dose 5-10 mg/kg
# Escherichia coli [38] = test: Antibacterial activity against kanamycin resistant Escherichia coli assessed as fractional inhibitory concentration index incubated for 18 hrs in presence of kanamycin by checkerboard assay; assay type: functional
# [39] = test system: Staphylococcus epidermidis; test: Antibacterial activity against Staphylococcus epidermidis ATCC 12228 incubated for 18 hrs by broth microdilution method; assay type: functional
# [40] = Acute toxicity in mouse assessed as renal cell necrosis at 230.5 mg/kg, ip by H and E staining based assay; assay type: organism-based; conditions: in vivo
# Staphylococcus aureus [41] = test: Antibacterial activity against Staphylococcus aureus 794 infected in BALB/c mouse skin wound infection model assessed as wound healing at 1 mg/ml, ip pre-infected with bacteria for 24 hrs followed by compound addition and measured after 13 days post infection; assay type: functional, organism-based; conditions: time 12.0 day
# Staphylococcus aureus [42] = test: Antibacterial activity against Staphylococcus aureus ATCC 25923 incubated for 18 hrs by broth microdilution method; assay type: functional
# Staphylococcus aureus [43] = test: Induction of morphological change in Staphylococcus aureus assessed as bacterial collapse at 2 times MIC incubated for 30 mins by SEM analysis; assay type: functional, organism-based
smiles,measurement,setting,value
NCCCC[C@@H](NC(=O)[C@H](N)Cc1c[nH]c2ccccc12)C(=O)N[C@H](Cc1c[nH]c2ccccc12)C(=O)N[C@H](CCCCN)C(=O)N[C@H](Cc1c[nH]c2ccccc12)C(=O)N[C@@H](CC(N)=O)C(=O)NCC(=O)N[C@H](Cc1c[nH]c2ccccc12)C(=O)N[C@H](CCCCN)C(=O)N[C@H](Cc1c[nH]c2ccccc12)C(=O)N[C@H](CCCCN)C(=O)N[C@H](Cc1c[nH]c2ccccc12)C(N)=O,fractional inhibitory concentration index (FICI),Escherichia coli [1],0.375
same,MBC,Pseudomonas aeruginosa [2],32 µM
same,fractional inhibitory concentration index (FICI),Pseudomonas aeruginosa [3],1.063
same,Activity,Staphylococcus aureus [4],100%
same,Activity,Pseudomonas aeruginosa [5],Active
same,Activity,Pseudomonas aeruginosa [6],Active
same,fractional inhibitory concentration index (FICI),Staphylococcus aureus [7],0.563
same,fractional inhibitory concentration index (FICI),Escherichia coli [8],0.563
same,fractional inhibitory concentration index (FICI),Staphylococcus aureus [9],0.625
same,fractional inhibitory concentration index (FICI),Staphylococcus aureus [10],0.563
same,fractional inhibitory concentration index (FICI),Staphylococcus aureus [11],0.313
same,fractional inhibitory concentration index (FICI),Staphylococcus aureus [12],0.375
same,fractional inhibitory concentration index (FICI),Klebsiella pneumoniae [13],0.5
same,Activity,Staphylococcus aureus [14],Active
same,Activity,Staphylococcus aureus [15],Active
same,Activity,Cell membrane [16],92.8%
same,Activity,[17],Non-Toxic
same,MIC,Staphylococcus aureus [18],4 µM
same,fractional inhibitory concentration index (FICI),Staphylococcus aureus [19],0.75
same,Activity,Staphylococcus aureus [20],Active
same,Retention_time,[21],14.321 min
same,MBC,Escherichia coli [22],8 µM
same,fractional inhibitory concentration index (FICI),Staphylococcus aureus [23],1
same,Activity,Cell membrane [24],Dose-Dependent Effect
same,Activity,Cell membrane [25],96.6%
same,fractional inhibitory concentration index (FICI),Staphylococcus aureus [26],0.5
same,MIC,Escherichia coli [27],8 µM
same,fractional inhibitory concentration index (FICI),Staphylococcus aureus [28],0.563
same,Activity,Staphylococcus aureus [29],Active
same,fractional inhibitory concentration index (FICI),Staphylococcus aureus [30],0.5
same,Activity,Escherichia coli [31],inactive
same,MIC,Staphylococcus aureus [32],4 µM
same,MBC,Klebsiella pneumoniae [33],8 µM
same,Activity,Escherichia coli [34],Active
same,Activity,Staphylococcus aureus [35],Active
same,Activity,[36],Toxic
same,Activity,Escherichia coli [37],Active
same,fractional inhibitory concentration index (FICI),Escherichia coli [38],0.188
same,MIC,[39],4 µM
same,Activity,[40],Toxic
same,Activity,Staphylococcus aureus [41],Active
same,MIC,Staphylococcus aureus [42],4 µM
same,Activity,Staphylococcus aureus [43],Active

# From ChEMBL document CHEMBL5543109, “Novel β-Hairpin Antimicrobial Peptide Containing the β-Turn Sequence of -NG- and the Tryptophan Zippers Facilitate Self-Assembly into Nanofibers, Exhibiting Excellent Antimicrobial Performance” (J Med Chem, 2024)
